Data set [1] can be described thus: Capillary electrophoresis, effective electrophoretic mobility (acetone as EOF marker). The data set is classed as physicochemical. Particulars: for µeff4.4 / µeff7.4 / µeff9.1: I = 25 mmol/L, 11 kV, 25 °C, three replicates; for μeff9.1 (effective electrophoretic mobility) / µeff9.1: pH 9.1.
Method: All experiments were performed using the SpectraPhoresis 500-capillary electrophoresis system (Spectra Physics Analytical, USA) with UV detector. Data were recorded and analyzed using ChromQuest software version 4.0 (Thermo Finnigan, USA).
The separations were performed with an uncoated fused capillary (total length 31.5 cm, 50 μm id, effective length 24 cm, Polymicro Technologies, USA) applying a voltage of 11 kV and at 25 °C. The samples were injected hydrodynamically and detection was performed in the 200-280 nm range. The new capillary was rinsed stepwise with 0.1 M NaOH (15 min), water (10 min) and a running buffer (10 min). Finally, a 10 min high voltage was applied through the background electrolyte-filled capillary to equalize the inner surface, stabilize the electroosmotic flow and ensure good reproducibility of injections from run to run. […] Between runs, the capillary was rinsed with the background electrolyte for 1 minute.
where Lt is the total length of the capillary (cm), Leff is the effective length of the capillary (cm), U is the applied voltage (V), tm is the migration time of the analyte (s) and teof is the migration time of the electroneutral EOF marker acetone (s). The calculated μeff values (μeff4.4, μeff7.4 and μeff9.1) were used as dependent variables in QSMR analysis.
The conditions of data set [2]: cited from earlier work.
Data set [3] is described as follows: RP-HPLC retention on XTerra RP18, methanol/buffer; extrapolated retention factor log kw and slope S. The data set is classed as physicochemical. To be noted: for log kw: intercept, extrapolated to 100 % buffer, methanol/buffer, 25 °C; for S (slope): slope of log k vs methanol volume fraction.
Method: All measurements were performed at 25°C with a constant flow rate of 0.8 mL min^-1 and UV detection in the range of 200-280 nm. The injection volume was 20 μL. […] The retention factor k was calculated for each mobile phase composition according to Equation (1):
where tr is the retention time of the tested compound and t0 is the dead volume measured with KNO3 as a non-retentive marker. The values corresponding to 100 % of the buffered eluent (log kw) were determined by extrapolation according to Equation (2):
where log kw is the intercept, S is the slope of the regression line, and φ is the volume fraction of the organic modifier in the mobile phase.
The retention behaviour in HPLC system was monitored by calculating extrapolated retention factors log kw corresponding to pure buffer as mobile phase.

The text below walks through data of paper PMC11542720, “Modelling of chromatographic and electrophoretic behaviour of imidazoline and alpha adrenergic receptors ligands under different acid-base conditions” (ADMET & DMPK, 2024).

Structures can show the parent of a compound that is named as a salt. Where two headings read alike, the source gives them in different places.

With `Brc1c(NC2=NCCN2)ccc2nccnc12` [Brimonidine, brimonidine hydrochloride], the µeff4.4 in data set [1] (pH 4.4) is recorded as 23.357 ± 0.043 10^-5 cm^2 V^-1 s^-1. In addition, the µeff7.4 in data set [1] (pH 7.4) is listed as 13.247 ± 0.200 10^-5 cm^2 V^-1 s^-1. Further, in data set [1], the “μeff9.1 (effective electrophoretic mobility)” value is “zero” and the µeff9.1 is recorded as 0.000 ± 0.000 10^-5 cm^2 V^-1 s^-1. For the same compound, the pKa experimental in data set [2] (potentiometric, ref 2 (Supplement reference list)) is given as 7.50. Further, in data set [3] (pH 4.4), the log kw is listed as 0.99 ± 0.03 and the “S (slope)” value is on record as -4.78 ± 0.21. For the same compound, in data set [3] (pH 7.4), the log kw is 1.08 ± 0.03 and the “S (slope)” value is -3.20 ± 0.12. Moreover, in data set [3] (pH 9.1), the log kw is 1.26 ± 0.07 and the “S (slope)” value is listed as -3.23 ± 0.19.
With `Nc1nc(N)c2nc(-c3ccccc3)c(N)nc2n1` [Triamterene, triamterene], the µeff4.4 in data set [1] (pH 4.4) was 22.146 ± 0.019 10^-5 cm^2 V^-1 s^-1. In data set [1] (pH 7.4), the “μeff7.4 (effective electrophoretic mobility, text)” value was 1.140±0.053 10^-5 cm^2 / V s and the µeff7.4 is reported as 1.140 ± 0.053 10^-5 cm^2 V^-1 s^-1. Besides, in data set [1], the “μeff9.1 (effective electrophoretic mobility)” value is listed as “zero” and the µeff9.1 is 0.000 ± 0.000 10^-5 cm^2 V^-1 s^-1. Moreover, the pKa experimental in data set [2] (spectrophotometric, ref 15 (Supplement reference list)) is on record as 7.16. In data set [3] (pH 4.4), the log kw is given as 1.75 ± 0.05 and the “S (slope)” value is -3.96 ± 0.14. Besides, in data set [3] (pH 7.4), the log kw was 1.92 ± 0.05 and the “S (slope)” value is -3.76 ± 0.12. Moreover, in data set [3] (pH 9.1), the log kw is reported as 1.93 ± 0.04 and the “S (slope)” value was -3.75 ± 0.11.
On to `Cc1nccc2c1[nH]c1ccccc12` [Harman, harmane], for which the “μeff4.4 (effective electrophoretic mobility)” value in data set [1] (pH 4.4) is 28.19 10^-5 cm^2 / V s. Also, the µeff4.4 in data set [1] (pH 4.4) is given as 28.192 ± 0.016 10^-5 cm^2 V^-1 s^-1. Also, in data set [1] (pH 7.4), the µeff7.4 is recorded as 11.752 ± 0.034 10^-5 cm^2 V^-1 s^-1. For the same compound, the µeff9.1 in data set [1] is given as 0.000 ± 0.000 10^-5 cm^2 V^-1 s^-1. In data set [2] (HPLC, ref 7 (Supplement reference list)), the pKa experimental is 7.21. The results for the log kw in data set [3] (pH 4.4), in data set [3] (pH 7.4) and in data set [3] (pH 9.1) were 1.72 ± 0.06, 2.76 ± 0.05 and 2.78 ± 0.06, respectively. Moreover, the “S (slope)” value in data set [3] (pH 4.4) is given as -3.74 ± 0.18; in data set [3] (pH 7.4), -3.70 ± 0.09; in data set [3] (pH 9.1) it was -3.75 ± 0.11.
Turning to `CN1CCN(C2=Nc3cc(Cl)ccc3Nc3ccccc32)CC1` [Clozapine, clozapine], the µeff4.4 in data set [1] (pH 4.4) was 22.697 ± 0.017 10^-5 cm^2 V^-1 s^-1. Further, in data set [1] (pH 7.4), the µeff7.4 is recorded as 9.204 ± 0.061 10^-5 cm^2 V^-1 s^-1. In addition, the “μeff9.1 (effective electrophoretic mobility)” value in data set [1] is recorded as “zero”. Besides, the µeff9.1 in data set [1] is reported as 0.000 ± 0.000 10^-5 cm^2 V^-1 s^-1. In data set [2] (HPLC, ref 5 (Supplement reference list)), the pKa experimental is 7.719 ± 0.015. Also, the values for the log kw in data set [3] (pH 4.4), in data set [3] (pH 7.4) and in data set [3] (pH 9.1) were 2.94 ± 0.03, 3.85 ± 0.05 and 3.95 ± 0.08, respectively. Also, the “S (slope)” value in data set [3] (pH 4.4) is listed as -4.69 ± 0.06; in data set [3] (pH 7.4), -4.88 ± 0.08; in data set [3] (pH 9.1), -5.04 ± 0.15.
In the case of `CNCCCC12CCC(c3ccccc31)c1ccccc12` [Maprotiline, maprotiline hydrochloride], in data set [1] (pH 4.4), the µeff4.4 is given as 20.559 ± 0.034 10^-5 cm^2 V^-1 s^-1. Also, in data set [1] (pH 7.4), the µeff7.4 was 18.696 ± 0.048 10^-5 cm^2 V^-1 s^-1. In data set [1], the µeff9.1 is recorded as 19.402 ± 0.148 10^-5 cm^2 V^-1 s^-1. Besides, the pKa experimental in data set [2] (potentiometric, ref 11 (Supplement reference list)) is 10.45 ± 0.02. The log kw in data set [3] (pH 4.4) is 2.90 ± 0.08; in data set [3] (pH 7.4), 2.58 ± 0.12; in data set [3] (pH 9.1) it was 3.09 ± 0.08. For the same compound, the “S (slope)” value in data set [3] (pH 4.4) is given as -4.31 ± 0.14; in data set [3] (pH 7.4), -3.18 ± 0.20; in data set [3] (pH 9.1), -4.20 ± 0.14.
